Results from patent publication EP2987533B1, “7-substituted piperazin-1-yl fluoroquinolone compounds, their use in the treatment of cancer, pharmaceutical compositions and a method for preparation” (priority 2014, dated 2016).

Experiments:
Assay in all cases: NCI one-dose SRB growth assay
Assay type in all cases: cell-based
CCRF-CEM = conditions: Homo sapiens; CCRF-CEM (Leukemia), 10^-5 M, 48 h; read-out: % Growth Inhibition (GI %)
Method: (§1) A primary anticancer assay was performed for an approximately 60 human tumor cell line panel derived from nine neoplastic diseases, in accordance with the protocol of the Drug Evaluation Branch, National Cancer Institute, Bethesda, MD (Monks A. et al., J. Natl. Cancer Inst 1991, 83, 757-766; Boyd M.R. and Paull K.D., Drug. Dev. Res. 1995, 34, 91-109; Shoemaker R.H., Nat. Rev. Cancer 2006, 6, 813-823). Briefly, tested compounds were added to the culture at a single concentration (10^-5M), and the cultures were incubated for 48 h. End point determinations were made with a protein binding dye, sulforhodamine B (SRB). The results for each tested compound were reported as the growth percentage of the treated cells when compared to that of the untreated control cells. The percentage growth was evaluated spectrophotometrically versus controls not treated with test agents.

SF-295 = conditions: Homo sapiens; SF-295 (CNS Cancer), 10^-5 M, 48 h; read-out: % Growth Inhibition (GI %)
Method: as §1

SK-MEL-5 = conditions: Homo sapiens; SK-MEL-5 (Melanoma), 10^-5 M, 48 h; read-out: % Growth Inhibition (GI %)
Method: as §1

HCT-116 = conditions: Homo sapiens; HCT-116 (Colon Cancer), 10^-5 M, 48 h; read-out: % Growth Inhibition (GI %)
Method: as §1

NCI-H23 = conditions: Homo sapiens; NCI-H23 (Non-Small Cell Lung Cancer), 10^-5 M, 48 h; read-out: % Growth Inhibition (GI %)
Method: as §1

HCC-2998 = conditions: Homo sapiens; HCC-2998 (Colon Cancer), 10^-5 M, 48 h; read-out: % Growth Inhibition (GI %)
Method: as §1

HCT-15 = conditions: Homo sapiens; HCT-15 (Colon Cancer), 10^-5 M, 48 h; read-out: % Growth Inhibition (GI %)
Method: as §1

HL-60(TB) = conditions: Homo sapiens; HL-60(TB) (Leukemia), 10^-5 M, 48 h; read-out: % Growth Inhibition (GI %)
Method: as §1

A549/ATCC = conditions: Homo sapiens; A549/ATCC (Non-Small Cell Lung Cancer), 10^-5 M, 48 h; read-out: % Growth Inhibition (GI %)
Method: as §1

PC-3 = conditions: Homo sapiens; PC-3 (Prostate Cancer), 10^-5 M, 48 h; read-out: % Growth Inhibition (GI %)
Method: as §1

NCI-H460 = conditions: Homo sapiens; NCI-H460 (Non-Small Cell Lung Cancer), 10^-5 M, 48 h; read-out: % Growth Inhibition (GI %)
Method: as §1

MOLT-4 = conditions: Homo sapiens; MOLT-4 (Leukemia), 10^-5 M, 48 h; read-out: % Growth Inhibition (GI %)
Method: as §1

HOP-92 = conditions: Homo sapiens; HOP-92 (Non-Small Cell Lung Cancer), 10^-5 M, 48 h; read-out: % Growth Inhibition (GI %)
Method: as §1

SK-MEL-28 = conditions: Homo sapiens; SK-MEL-28 (Melanoma), 10^-5 M, 48 h; read-out: % Growth Inhibition (GI %)
Method: as §1

UACC-257 = conditions: Homo sapiens; UACC-257 (Melanoma), 10^-5 M, 48 h; read-out: % Growth Inhibition (GI %)
Method: as §1

HT29 = conditions: Homo sapiens, HT-29; HT29 (Colon Cancer), 10^-5 M, 48 h; read-out: % Growth Inhibition (GI %)
Method: as §1

SK-MEL-2 = conditions: Homo sapiens; SK-MEL-2 (Melanoma), 10^-5 M, 48 h; read-out: % Growth Inhibition (GI %)
Method: as §1

LOX IMVI = conditions: Homo sapiens; LOX IMVI (Melanoma), 10^-5 M, 48 h; read-out: % Growth Inhibition (GI %)
Method: as §1

NCI-H226 = conditions: Homo sapiens; NCI-H226 (Non-Small Cell Lung Cancer), 10^-5 M, 48 h; read-out: % Growth Inhibition (GI %)
Method: as §1

UO-31 = conditions: Homo sapiens; UO-31 (Renal Cancer), 10^-5 M, 48 h; read-out: % Growth Inhibition (GI %)
Method: as §1

DU-145 = conditions: Homo sapiens; DU-145 (Prostate Cancer), 10^-5 M, 48 h; read-out: % Growth Inhibition (GI %)
Method: as §1

SNB-19 = conditions: Homo sapiens; SNB-19 (CNS Cancer), 10^-5 M, 48 h; read-out: % Growth Inhibition (GI %)
Method: as §1

IGROV1 = conditions: Homo sapiens, IGROV-1; IGROV1 (Ovarian Cancer), 10^-5 M, 48 h; read-out: % Growth Inhibition (GI %)
Method: as §1

SW-620 = conditions: Homo sapiens; SW-620 (Colon Cancer), 10^-5 M, 48 h; read-out: % Growth Inhibition (GI %)
Method: as §1

TK-10 = conditions: Homo sapiens; TK-10 (Renal Cancer), 10^-5 M, 48 h; read-out: % Growth Inhibition (GI %)
Method: as §1

OVCAR-5 = conditions: Homo sapiens; OVCAR-5 (Ovarian Cancer), 10^-5 M, 48 h; read-out: % Growth Inhibition (GI %)
Method: as §1

| Compound | inhibition at 10 µM (CCRF-CEM) [%] | inhibition at 10 µM (SF-295) [%] | inhibition at 10 µM (SK-MEL-5) [%] | inhibition at 10 µM (HCT-116) [%] | inhibition at 10 µM (NCI-H23) [%] | inhibition at 10 µM (HCC-2998) [%] | inhibition at 10 µM (HCT-15) [%] | inhibition at 10 µM (HL-60(TB)) [%] | inhibition at 10 µM (A549/ATCC) [%] | inhibition at 10 µM (PC-3) [%] | inhibition at 10 µM (NCI-H460) [%] | inhibition at 10 µM (MOLT-4) [%] | inhibition at 10 µM (HOP-92) [%] | inhibition at 10 µM (UACC-257) [%] | inhibition at 10 µM (HT29) [%] | inhibition at 10 µM (SK-MEL-2) [%] | inhibition at 10 µM (LOX IMVI) [%] | inhibition at 10 µM (NCI-H226) [%] | inhibition at 10 µM (UO-31) [%] | inhibition at 10 µM (DU-145) [%] | further results |
| --- | --- | --- | --- | --- | --- | --- | --- | --- | --- | --- | --- | --- | --- | --- | --- | --- | --- | --- | --- | --- | --- |
| O=C(O)c1cn(C2CC2)c2cc(N3CCN(S(=O)(=O)c4ccc(Cl)cc4Cl)CC3)c(F)cc2c1=O [Compound 2b] | 19 | < 10 | 79.8 | 13.4 | 16.8 | < 10 | 16.2 | 13.1 | < 10 | 18.9 | < 10 | 24.1 | < 10 | < 10 | < 10 | < 10 | 38.6 | 39.7 | 40 | < 10 | inhibition at 10 µM (SK-MEL-28): 49.1%; inhibition at 10 µM (SNB-19): < 10%; inhibition at 10 µM (IGROV1): < 10%; inhibition at 10 µM (SW-620): < 10%; inhibition at 10 µM (TK-10): < 10%; inhibition at 10 µM (OVCAR-5): < 10% |
| Cc1cc(C)c(S(=O)(=O)N2CCN(c3cc4c(cc3F)c(=O)c(C(=O)O)cn4C3CC3)CC2)c(C)c1 [Compound 6b] | 62.7 | 66.8 | 45.1 | 67.8 | 42.6 | 52.3 | 44.9 | 91.3 | 79.7 | 32.1 | 60.5 | 39 | 53.1 | 13.1 | 71.7 | < 10 | 70.4 | 28.2 | 83.9 | 28.6 | inhibition at 10 µM (SK-MEL-28): 30.9%; inhibition at 10 µM (SNB-19): 33.7%; inhibition at 10 µM (IGROV1): 64.3%; inhibition at 10 µM (SW-620): 20.2%; inhibition at 10 µM (TK-10): 13.5%; inhibition at 10 µM (OVCAR-5): 57.8% |
| CCn1cc(C(=O)O)c(=O)c2cc(F)c(N3CCN(S(=O)(=O)c4ccc(Cl)cc4)CC3)cc21 [Compound 1a] | > 100 | 96.1 | 73.4 | 95.2 | > 100 | 75.5 | 84.3 | 91 | 84.4 | 74.7 | 94.1 | 76.4 | > 100 | 71 | 92.1 | 56.2 | 80.1 | 39.9 | 48.9 | 68.3 | inhibition at 10 µM (SK-MEL-28): 55.4%; inhibition at 10 µM (SNB-19): 79.4%; inhibition at 10 µM (IGROV1): 90.6%; inhibition at 10 µM (SW-620): 76%; inhibition at 10 µM (TK-10): 46.4%; inhibition at 10 µM (OVCAR-5): 48.1% |
| O=C(O)c1cn(C2CC2)c2cc(N3CCN(S(=O)(=O)c4ccc(Cl)c(Cl)c4)CC3)c(F)cc2c1=O [Compound 3b] | 83.1 | > 100 | 97.9 | 96 | 98.2 | 75.2 | 93.8 | > 100 | 94 | 83.8 | 94.2 | 96.6 | 87.8 | 91.1 | 99.7 | > 100 | 98.8 | 58.6 | 90 | 82.8 | inhibition at 10 µM (SK-MEL-28): 51.5%; inhibition at 10 µM (SNB-19): 75.3%; inhibition at 10 µM (IGROV1): 70.7%; inhibition at 10 µM (SW-620): 79.3%; inhibition at 10 µM (TK-10): 66.8%; inhibition at 10 µM (OVCAR-5): 87.5% |
| CCn1cc(C(=O)O)c(=O)c2cc(F)c(N3CCN(S(=O)(=O)c4c(C)cc(C)cc4C)CC3)cc21 [Compound 6a] | 18.2 | 51.6 | 20.5 | 20.9 | 22.3 | 17.5 | 28.5 | 26.9 | 22 | 38.9 | 17.2 | 24.1 | 12.6 | < 10 | < 10 | 11.3 | 38.7 | 23.1 | 66.9 | < 10 | inhibition at 10 µM (SK-MEL-28): < 10%; inhibition at 10 µM (SNB-19): 10.1%; inhibition at 10 µM (IGROV1): 20.6%; inhibition at 10 µM (SW-620): < 10%; inhibition at 10 µM (TK-10): < 10%; inhibition at 10 µM (OVCAR-5): 11.4% |
| O=c1[nH]cc(F)c(=O)[nH]1 [Compound 5-FU, 5-fluorouracil, reference compound] | 57.1 | 69.1 | 33.7 | 17.8 | 39 | > 100 | 26.5 | 47.9 | 34.2 | 58.2 | 13 | 43.1 | 50.6 | 19.5 | 27.1 | 95.5 | 30.4 | 69.5 | 41.3 | 35.5 | inhibition at 10 µM (SNB-19): 65.9%; inhibition at 10 µM (IGROV1): 51.2%; inhibition at 10 µM (SW-620): 50.1%; inhibition at 10 µM (TK-10): 66.9%; inhibition at 10 µM (OVCAR-5): 44.3% |
